Patent publication US20060052627A1, “Novel modulators of the PPAR-type receptors and cosmetic/pharmaceutical compositions comprised thereof” (GALDERMA RESEARCH & DEVELOPMENT, S.N.C., priority 2003, published 2006)

Key:
Format in all cases: cell-based
PPARδ = PPARδ (Homo sapiens, UniProt Q03181); test: Cross-curve PPAR transactivation test (luciferase reporter, HeLN cells), PPARδ; conditions: HeLN cells stably transfected with Gal-hPPARδ; apparent Kd by Schild regression against reference agonist; n.a. means not active; read-out: PPAR delta Kd app
Sequence of PPARδ (Q03181 211-441 limits assumed): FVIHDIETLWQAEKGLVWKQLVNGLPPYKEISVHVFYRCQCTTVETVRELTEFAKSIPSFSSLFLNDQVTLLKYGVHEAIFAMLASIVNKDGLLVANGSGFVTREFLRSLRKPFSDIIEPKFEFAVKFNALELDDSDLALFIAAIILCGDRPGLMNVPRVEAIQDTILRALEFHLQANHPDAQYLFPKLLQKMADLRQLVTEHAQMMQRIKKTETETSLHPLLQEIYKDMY
Method: (§1) This activity on the PPARα, δ and γ receptors is measured in a transactivation test and quantified by the dissociation constant Kdapp (apparent), as described in Example 142.
(§2) The activation of receptors with an agonist (activator) in HeLN cells leads to the expression of a reporter gene, luciferase, which, in the presence of a substrate, generates light. The modulation of the receptors is measured as quantity of luminescence produced after incubating the cells in the presence of a reference agonist. The ligands will displace the agonist from its site. The measurement of the activity is performed by quantification of the light produced. This measurement makes it possible to determine the modulatory activity of the compounds according to the invention by determining the constant which is the affinity of the molecule for the receptor. […]
(§3) The various dilutions of the test products and of the reference ligand are added in an amount of 5 [I per well. […] After 5 minutes, the plates are read by the luminescence reader.
(§4) These AC50 values are used to calculate the Schild regression by plotting a straight line corresponding to the Schild equation (“quantitation in receptor pharmacology” Terry P. Kenakin, Receptors and Channels, 2001, 7, 371-385) which leads to Kd app values being obtained (in nM).

PPARα = biological target: T1, PPARα (Homo sapiens, UniProt Q07869); test: Cross-curve PPAR transactivation test (luciferase reporter, HeLN cells), PPARα; conditions: HeLN cells stably transfected with Gal-hPPARα; apparent Kd by Schild regression against reference agonist; n.a. means not active; read-out: PPAR alpha Kd app
T1 sequence (Q07869 200-468 limits assumed): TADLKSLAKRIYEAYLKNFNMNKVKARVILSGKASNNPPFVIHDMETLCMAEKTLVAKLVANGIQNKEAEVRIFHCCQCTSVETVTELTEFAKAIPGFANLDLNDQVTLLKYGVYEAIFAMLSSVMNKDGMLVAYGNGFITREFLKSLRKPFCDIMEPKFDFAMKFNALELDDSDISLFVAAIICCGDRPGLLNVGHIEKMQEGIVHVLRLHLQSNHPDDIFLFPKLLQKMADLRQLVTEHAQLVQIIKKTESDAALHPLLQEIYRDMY
Method: as §1, §2, §3, §4

PPARγ = biological target: T2, PPARγ (Homo sapiens, UniProt P37231); test: Cross-curve PPAR transactivation test (luciferase reporter, HeLN cells), PPARγ; conditions: HeLN cells stably transfected with Gal-hPPARγ; apparent Kd by Schild regression against reference agonist; n.a. means not active; read-out: PPAR gamma Kd app
T2 sequence (P37231 238-505 limits assumed): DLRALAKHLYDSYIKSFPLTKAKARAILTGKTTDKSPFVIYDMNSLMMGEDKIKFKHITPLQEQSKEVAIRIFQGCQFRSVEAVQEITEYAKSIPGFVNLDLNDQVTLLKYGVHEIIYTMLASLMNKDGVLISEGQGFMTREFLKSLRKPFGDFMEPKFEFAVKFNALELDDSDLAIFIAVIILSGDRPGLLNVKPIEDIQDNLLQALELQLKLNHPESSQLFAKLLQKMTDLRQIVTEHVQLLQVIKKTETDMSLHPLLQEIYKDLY
Method: as §1, §2, §3, §4

Kd (PPARδ) [nM]	Kd (PPARα) [nM]	Kd (PPARγ) [nM]	SMILES
120	8000	2000	CCCCCCNC(=O)N(CCCc1ccccc1)c1cccc(Sc2ccc(CC(=O)O)cc2)c1 [Example 30b, (4-{3-[3-Hexyl-1-(3-phenylpropyl)ureido]phenylsulfanyl}phenyl)acetic acid]
120	250	500	O=C(O)Cc1ccc(Sc2ccc(N(CCc3ccccc3)C(=O)NC3CCCCC3)cc2)cc1 [Example 116b, {4-[4-(3-Cyclohexyl-1-phenethylureido)phenylsulfanyl]phenyl}acetic acid]
